Entries after “also recorded” stand apart in the source; their conditions may differ.
Assays:
T. brucei PGI = T. brucei PGI (Trypanosoma brucei brucei, UniProt P13377); settings: cited from earlier work
Yeast PGI = Yeast PGI (Saccharomyces cerevisiae, UniProt P12709); settings: cited from earlier work
[1] = system: A. fumigatus phosphoglucose isomerase, ketol-isomerase, and N-acetyltransferase; assay: Colorimetric CoA(GlcNAc-6-P) formation assay in crude A. fumigatus lysates; format: biochemical, Aspergillus fumigatus; settings: added to crude A. fumigatus lysates, FIG. 5
Description: A. fumigatus ATCC16424 (a human clinical isolate) was inoculated into liquid YG medium [1% (w/v) yeast extract and 1% (w/v) glucose] with 1×10^7 conidia per/mL (final concentration), and incubated for 18 hours at 37° C. with shaking (250 rpm). Hyphae were harvested by vacuum filtration over Whatman No. 2 filter paper, washed twice with ice-cold water, quick-frozen in dry ice, and stored at −80° C.
Frozen A. fumigatus hyphae were thawed and disrupted by bead-beating (6×30 seconds pulses with 2 minutes cooling between each pulse) using 0.5 mm zirconium beads in KI buffer (600 mM sucrose, 1 mM KCl, 1 mM EDTA, 50 mM PIPES, pH 6.8). The lysates were centrifuged at 1,000×g for 10 minutes at 4° C. The supernatants were stored at −80° C. and used as enzyme sources. The protein concentration of the supernatants was determined using the BioRad protein assay kit.
Reactions were performed in 96-well flat bottom microtiter plates containing 10 mM Glc-6-P, 10 mM glutamine, 200 μM AcCoA, and 0.25 mg/mL cell lysate of A. fumigatus at pH 6.8 in a final volume of 50 μL. […] After incubation for 10 minutes at room temperature, the OD412 was measured using a microtiter plate reader. […] The amount of CoA formed by reaction mixtures was calculated from the standard curve. […]

Chitin synthase = settings: competitive substrate inhibitors of chitin synthase; cited from earlier work
[2] = target: T. brucei phosphoglucose isomerase (Trypanosoma brucei brucei, UniProt P13377); settings: cited from earlier work
[3] = target: yeast phosphoglucose isomerase (Saccharomyces cerevisiae, UniProt P12709); settings: cited from earlier work
[4] = target: Rabbit phosphoglucose isomerase (Oryctolagus cuniculus, UniProt Q9N1E2); settings: low ionic strength, cited from earlier work
[5] = competitive inhibitor, low ionic strength, read-out: Gluconate-6-P Ki
[6] = read-out: Fru-6-P Km, low ionic strength

Chain of T. brucei PGI (P13377 whole entry): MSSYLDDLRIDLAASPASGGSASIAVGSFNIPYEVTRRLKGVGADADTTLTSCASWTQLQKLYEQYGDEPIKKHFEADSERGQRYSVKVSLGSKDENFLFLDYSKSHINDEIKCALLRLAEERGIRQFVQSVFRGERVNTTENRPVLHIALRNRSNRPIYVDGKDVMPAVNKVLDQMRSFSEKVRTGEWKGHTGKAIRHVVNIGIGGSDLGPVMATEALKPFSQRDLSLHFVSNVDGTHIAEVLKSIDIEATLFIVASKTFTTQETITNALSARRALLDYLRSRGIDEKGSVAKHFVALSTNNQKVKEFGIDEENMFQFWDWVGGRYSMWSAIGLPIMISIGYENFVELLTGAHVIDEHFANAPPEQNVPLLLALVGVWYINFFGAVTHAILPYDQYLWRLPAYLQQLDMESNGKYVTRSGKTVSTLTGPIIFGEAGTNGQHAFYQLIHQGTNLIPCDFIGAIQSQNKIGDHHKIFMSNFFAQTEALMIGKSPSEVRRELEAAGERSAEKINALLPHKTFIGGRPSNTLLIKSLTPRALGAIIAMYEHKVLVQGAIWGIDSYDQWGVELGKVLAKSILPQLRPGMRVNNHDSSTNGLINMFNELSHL
Chain of yeast phosphoglucose isomerase (P12709 2-554): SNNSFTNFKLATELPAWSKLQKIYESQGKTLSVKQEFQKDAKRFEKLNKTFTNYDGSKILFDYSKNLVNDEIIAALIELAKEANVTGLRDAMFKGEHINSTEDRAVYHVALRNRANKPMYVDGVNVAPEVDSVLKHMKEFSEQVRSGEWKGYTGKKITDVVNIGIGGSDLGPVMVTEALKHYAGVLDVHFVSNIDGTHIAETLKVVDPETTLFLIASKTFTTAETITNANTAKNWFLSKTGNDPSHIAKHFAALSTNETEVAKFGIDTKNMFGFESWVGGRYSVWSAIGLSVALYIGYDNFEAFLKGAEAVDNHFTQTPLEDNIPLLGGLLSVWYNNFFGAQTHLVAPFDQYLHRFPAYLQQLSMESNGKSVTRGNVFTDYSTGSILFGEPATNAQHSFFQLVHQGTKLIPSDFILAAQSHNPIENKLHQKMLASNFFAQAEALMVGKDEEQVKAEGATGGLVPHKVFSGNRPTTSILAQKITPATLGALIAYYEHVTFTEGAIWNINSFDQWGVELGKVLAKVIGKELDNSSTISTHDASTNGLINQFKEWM
Chain of Yeast PGI (P12709 2-554): as above
Chain of T. brucei phosphoglucose isomerase (P13377 whole entry): as the sequence (P13377 whole entry) above

For `O=C(NO)[C@@H](O)[C@H](O)[C@H](O)COP(=O)(O)O` [D-Arabinohydroxamic acid-5-phosphate], the Ki (T. brucei PGI; T. brucei PGI) is listed as 0.05 ± 0.009 µM, the Km/Ki (T. brucei PGI; T. brucei PGI) is listed as 2060 and the “specificity for T. brucei phosphoglucose isomerase versus yeast isomerase” value (T. brucei PGI; T. brucei versus yeast) is listed as 4.6 fold. For the same molecule, the Ki (Yeast PGI) was 0.23 ± 0.02 µM and the Km/Ki (Yeast PGI) was 300.
With “uridine diphosphate-N-acetyl glucosamine [UDP-GlcNAc]” the “inhibition of CoA (GlcNAc-6-P) formation” value [1] was “inhibited the formation of CoA (GlcNAc-6-P) in a dose-dependent manner; also recorded: inhibited the production of CoA in a dose dependent manner”.
In the case of polyoxins, the “inhibition constants (Ki)” value (Chitin synthase) is given as “in the μM range”.
For `O=C(O)[C@H](O)[C@@H](O)[C@H](O)[C@H](O)COP(=O)(O)O` [Gluconate-6-P, gluconate-6-phosphate], the “inhibition of CoA (GlcNAc-6-P) formation” value [1] is listed as “inhibited the formation of CoA (GlcNAc-6-P) in a dose-dependent manner; also recorded: inhibited the production of CoA in a dose dependent manner”, the Ki [2, 5] is listed as 140 ± 30 µM and the Ki [3, 5] is listed as 480 ± 120 µM. For the same molecule, the Ki ([4]; competitive inhibitor, read-out: Gluconate-6-P Ki) was 120 ± 30 µM.
For `O=C(CO)[C@@H](O)[C@H](O)[C@H](O)COP(=O)(O)O` [Fru-6-P, fructose-6-phosphate], the Km [2, 6] is listed as 122 ± 45 µM, the Km [3, 6] is listed as 167 ± 48 µM and the Km ([4]; read-out: Fru-6-P Km) is listed as 119 ± 28 µM.

— US6743598B2, “Methods for the identification of fungal glucose utilization inhibitors and antifungal agents” (priority 2001, dated 2004)
